Assay results as given in PubChem BioAssay AID743164 (Broad Institute, 2013).
Active and inactive are the calls of the source. No rule for the calls is given here.

Columns and labels:
[1] = IC90 against starved M. tuberculosis, dose response, CFU by imaging, dry powder, 7108-04 (AID 743164); conditions: Mycobacterium tuberculosis, starved, CFU imaging
[2] = system: Mycobacterium tuberculosis, starved, CFU imaging; assay: as above

| SMILES | outcome [1] | IC90 [2] [µM] |
| --- | --- | --- |
| CCOC(=O)NC(=O)c1ccsc1NC(=O)c1nc2ccccc2s1 | inactive |  |
| Cn1c(NC(=O)c2ccccc2)nc2ccccc21 |  | < 8 |
